Data taken from a melting point compilation (Tetko et al.; mined from patent text by program, amines drawn as free bases though some values may be those of a salt).

Work on `Cc1cc(C)n2ncc(I)c2n1` yielded a melting point of 120 to 122 °C. `COC(=O)C(C)=C(C)C(=O)N(C(=O)c1ccccc1)c1cc(OC)c(Cl)cc1F` showed a melting point of 142 to 145 °C. `CCOC(=O)c1cnc2ccc(OC)cc2c1Cl` showed a melting point of 93.7 to 95.7 °C. Work on `Cc1c(C)c2c(c(C)c1O)C(c1ccc(C(C)C)cc1)C1(CCN(C)CC1)O2` (centres undefined) yielded a melting point of 114 to 117 °C. With `COc1ccc(C(C)(C)O)cc1CN[C@H]1CN2CC[C@H]1[C@H](C(=O)O)[C@@H]2C(c1ccccc1)c1ccccc1` the melting point was 150 to 153 °C. Work on `C[C@@H](NC(=O)[C@H](Cc1ccc(O)cc1)NC(=O)OC(C)(C)C)C(=O)NCC(=O)Oc1c(Cl)c(Cl)c(Cl)c(Cl)c1Cl` yielded a melting point of 222 °C. Compound `CC(CNC(=O)c1ccc(Cl)nc1)Cn1ccnc1` (centres undefined) has a melting point of 102 to 104 °C. In the case of `O=C(Cc1ccc(F)cc1)c1c(O)c2cccnc2n(-c2cccc(OC(F)(F)F)c2)c1=O`, the melting point is reported as 137 to 138 °C. With `COC(=O)C1=C(C)NC(C)=C(C(=O)OCC(C)(C)CN(C)C)C1c1cccc([N+](=O)[O-])c1Cl` (centres undefined) the melting point was 167 to 169 °C. With `CCOc1ccc(C(O)(C(F)(F)F)C(F)(F)Cl)cc1` (centres undefined) the melting point was 84 to 86 °C. With `NC(=O)N(c1ccccc1)c1nc(Cl)nc(Cl)n1` the melting point was 151 to 154 °C. `CC(=O)Oc1ccccc1C(=O)N[C@@H]1CCCC[C@@H]1O[N+](=O)[O-]` (relative stereo) gave a melting point of 143 to 145 °C. Compound `CC12CCC3C(CCC4CC5OC5CC43C)C1CC(N1CCCC1)C2=O` (centres undefined) has a melting point of 146 °C. In the case of `CC(=O)Nc1ccc2[nH]c(=O)cc(CCN3CCC(c4c[nH]c5ccccc45)CC3)c2c1`, the melting point is reported as 180 to 183 °C. `Cc1oc(-c2ccccc2)nc1COc1ccc2oc(CCCc3nnn[nH]3)cc2c1` gave a melting point of 136 to 137 °C. Compound `O=C(C1CCCC1)N1C=C2c3ccccc3C3CC2(C1)c1ccccc13` (centres undefined) has a melting point of 185 to 186 °C. In the case of `O=[N+]([O-])c1ccccc1N1CCN(CC(O)COc2cccc3c2CCCC3)CC1` (centres undefined), the melting point is reported as 186 to 187 °C. In the case of `CCc1oc2ccccc2c1C(=O)N(Cc1ccccc1)Cc1ccc2c(Br)c(O)ccc2c1`, the melting point is reported as 125 to 130 °C. Compound `COc1ccccc1NC(=O)Nc1nc(N(CCC(=O)O)Cc2cccc(C)c2)nc(N2CCc3ccccc32)n1` has a melting point of 201 °C. `CC(=O)Oc1cccc2sc(-c3ccc(C(=O)O)cc3)nc12` showed a melting point of 229 to 233 °C. Work on `O=C1NC(=O)C(Cc2ccc(OCCON=Cc3ccncc3)cc2)S1` (centres undefined) yielded a melting point of 221 °C. `O=C(Nc1ccc(C(F)(F)F)cn1)Oc1ccccc1` gave a melting point of 203 °C. `O=[N+]([O-])c1cnn2c(-c3cccc(C(F)(F)F)c3)ccnc12` showed a melting point of 159 to 161 °C. In the case of `O=C(NNS(=O)(=O)c1ccccc1)c1cc2cc(Cl)ccc2o1`, the melting point is reported as 181 to 183 °C. `COc1cc(Br)cc2c1OCCC2` gave a melting point of 67 °C. Compound `COc1ccc(-c2cc3ncnc(Nc4ccc5[nH]ccc5c4)c3s2)cc1` has a melting point of 150 to 180 °C. Compound `CCc1ccc(Nc2c(C(=O)NOCCO)ccc(F)c2F)c(Cl)c1` has a melting point of 142 to 145 °C. `COC(=O)c1c(-c2ccccc2C)c2cc(C)c(C)cc2[nH]c1=O` showed a melting point of 288 to 289 °C. For `Oc1ccc2c(c1)CCCC(c1ccccc1)=C2c1ccc(OCCI)cc1`, the melting point was 229 to 231 °C. In the case of `COc1cc(C(C)C)c2c(c1)S(=O)(=O)N(COc1cc(C(F)(F)F)nn1-c1ccc([N+](=O)[O-])cc1)C2=O`, the melting point is reported as 185 to 187 °C. Work on `CCC(=O)NC[C@@H]1C[C@H]1c1cccn2nc(C)cc12` (relative stereo) yielded a melting point of 95 to 98 °C. `Nc1cnc2c(F)c(Cl)c(F)cc2c1` showed a melting point of 270 °C. With `CC(C)(C)c1nc(C=O)c[nH]1` the melting point was 194 to 195 °C. With `[N-]=[N+]=Nc1cccc2cccc(O)c12` the melting point was 65 to 67 °C. With `CCC1(CCCCCC(=O)O)C(=O)NC(=O)NC1=O` the melting point was 185 to 192 °C. In the case of `COCCCNC(=O)c1cc(C(=O)OC)c(O)c2ncc(Cc3ccc(F)cc3)cc12`, the melting point is reported as 166 to 167 °C. `CCCc1nc(C(C)=O)c(C(=O)OCC)[nH]1` gave a melting point of 76 to 78 °C. For `CCOC(=O)c1ccc(NC(=O)CCc2ccc(Cl)cc2)cc1`, the melting point was 163 to 165 °C. `COc1cccc(N(c2ccccc2)c2ccc(-c3ccc(N(c4ccccc4)c4cccc(OC)c4)cc3)cc2)c1` showed a melting point of 120 to 125 °C. Work on `CCOC(=O)c1c(Cl)nc2cc(Cl)c(OC)cc2c1CCl` yielded a melting point of over 250 °C. `Cc1nc2ccccc2n1CCc1ccccc1` showed a melting point of 104 to 106 °C. With `O=C(CCCCCCNC(=O)c1cn2c3c(cccc13)CCC2)NO` the melting point was 205 to 206 °C. With `CC(=O)OC1CC2C(=O)CC3C(CCC4(C)C(C(C)C=CC(C)C(C)C)CCC34)C2(C)CC1OC(C)=O` (centres undefined) the melting point was 196 to 197 °C. `O=C(Nc1cccc(Nc2ccc3c(c2)NC(=O)C3=Cc2ccc[nH]2)c1)Nc1cccc(C(F)(F)F)c1` gave a melting point of 253 to 256 °C. Compound `COc1cc(/C=C/c2ccc(C)cc2)cc(OC)c1OC` has a melting point of 125 to 127 °C. For `N#Cc1ccc(OCc2ccsc2)cc1F`, the melting point was 63 to 65 °C. `COc1ncccc1C(=O)NCC1CCN(C[C@H]2COc3ccc(Cl)cc3O2)CC1` gave a melting point of 72 to 75 °C. With `Cc1cccc2nc(CSc3ncnc4[nH]cnc34)n(-c3ccccc3F)c(=O)c12` the melting point was 152 °C. Work on `C[Si](C)(C)c1c(C#N)c(C(F)(F)F)nn1-c1c(Cl)cc(C(F)(F)F)cc1Cl` yielded a melting point of 108 to 110 °C.
